# Assay results published in the supplement of paper PMC10307832.
# Tests used:
# Test in all cases: relative viability (nuclei count vs DMSO), 5 days (fraction); higher = more cells survive
# [1] = compound: CN(c1ncccc1CNc1nc(Nc2ccc3c(c2)CC(=O)N3)ncc1C(F)(F)F)S(C)(=O)=O + O=C(c1cc(Cc2n[nH]c(=O)c3ccccc23)ccc1F)N1CCN(C(=O)C2CC2)CC1 [Olaparib] (partner 8 µM)
# Outline: (§1)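 Nuclei were stained with Hoechst during a one-step fixation (final 0.05% Triton X-100, 1% formaldehyde, 1 ug/ml Hoechst) carried out 5 days after dosing, then counted on 4× images. The cells, lung cancer lines in 1536-well plates, had been dosed by pin tool the day after seeding with one drug alone or a fixed anchor-drug dose plus five library-drug doses (not always all listed) in √10 steps. Relative viability is the nuclei count in treated wells divided by that in vehicle wells, and each value is the median of duplicate plates.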
# [2] = compound: CN(c1ncccc1CNc1nc(Nc2ccc3c(c2)CC(=O)N3)ncc1C(F)(F)F)S(C)(=O)=O + N=C(N)NC(=N)NCCc1ccccc1 [Phenformin] (partner 250 µM)
# Outline: as §1
# [3] = compound: CN(c1ncccc1CNc1nc(Nc2ccc3c(c2)CC(=O)N3)ncc1C(F)(F)F)S(C)(=O)=O + CS(=O)(=O)CCNCc1ccc(-c2ccc3ncnc(Nc4ccc(OCc5cccc(F)c5)c(Cl)c4)c3c2)o1 [Lapatinib] (partner 2 µM)
# Outline: as §1
# [4] = compound: CN(c1ncccc1CNc1nc(Nc2ccc3c(c2)CC(=O)N3)ncc1C(F)(F)F)S(C)(=O)=O + CC(=O)Nc1cccc(-n2c(=O)n(C3CC3)c(=O)c3c(Nc4ccc(I)cc4F)n(C)c(=O)c(C)c32)c1 [Trametinib] (partner 0.02 µM)
# Outline: as §1
Cell Line,relative viability ([1]; first compound 0.01 µM),relative viability ([1]; first compound 0.03162 µM),relative viability ([1]; first compound 0.1 µM),relative viability ([1]; first compound 0.3162 µM),relative viability ([1]; first compound 1 µM),relative viability ([2]; first compound 0.01 µM),relative viability ([2]; first compound 0.03162 µM),relative viability ([2]; first compound 0.1 µM),relative viability ([2]; first compound 0.3162 µM),relative viability ([2]; first compound 1 µM),relative viability ([3]; first compound 0.01 µM),relative viability ([3]; first compound 0.03162 µM),relative viability ([3]; first compound 0.1 µM),relative viability ([3]; first compound 0.3162 µM),relative viability ([3]; first compound 1 µM),relative viability ([4]; first compound 0.01 µM),relative viability ([4]; first compound 0.03162 µM),relative viability ([4]; first compound 0.1 µM),relative viability ([4]; first compound 0.3162 µM),relative viability ([4]; first compound 1 µM)
NCI-H661,0.727,0.85,0.74,0.771,0.7,0.285,0.286,0.289,0.277,0.294,0.481,0.496,0.652,0.534,0.637,0.549,0.729,0.577,0.615,0.608
NCI-H1993,1.13,0.977,1,1.1,0.92,0.511,0.543,0.448,0.468,0.452,0.804,0.91,0.82,0.889,0.769,0.481,0.547,0.669,0.409,0.585
NCI-H1437,0.63,0.633,0.59,0.583,0.466,0.384,0.333,0.284,0.298,0.266,0.876,0.944,0.813,0.722,0.725,0.529,0.575,0.415,0.356,0.395
UMC-11,0.413,0.545,0.364,0.439,0.363,0.333,0.366,0.334,0.314,0.262,1.03,1.06,0.866,0.995,0.678,0.762,0.761,0.794,0.72,0.539
201T,0.827,0.887,0.814,0.776,0.779,0.43,0.394,0.445,0.443,0.437,1.08,1,0.962,0.924,0.988,0.709,0.712,0.664,0.669,0.67
NCI-H358,0.61,0.57,0.573,0.532,0.416,0.336,0.338,0.317,0.317,0.202,0.449,0.414,0.42,0.431,0.397,0.12,0.125,0.108,0.126,0.0973
NCI-H1650,0.753,0.783,0.784,0.672,0.675,0.481,0.53,0.519,0.436,0.409,0.78,0.9,0.805,,0.592,0.647,0.587,0.582,0.57,0.483
LOU-NH91,0.888,0.92,0.883,0.972,0.858,0.704,0.776,0.726,0.716,0.792,0.777,0.714,0.73,0.743,0.741,0.802,0.793,0.75,0.819,0.787
HOP-62,0.526,0.421,0.326,0.363,0.384,0.776,0.681,0.628,0.675,0.558,1.06,1.1,1.02,1.09,0.903,0.353,0.438,0.379,0.332,0.306
NCI-H1915,0.272,0.241,0.262,0.264,0.285,0.386,0.379,0.365,0.368,0.36,0.99,0.919,0.912,0.93,0.969,0.288,0.293,0.293,0.315,0.29
NCI-H3122,0.658,0.65,0.604,0.568,0.574,0.389,0.373,0.36,0.317,0.354,1.02,1.08,1.01,0.956,0.876,0.244,0.257,0.214,0.22,0.201
NCI-H1651,0.187,0.172,0.204,0.183,0.197,0.348,0.365,0.359,0.365,0.358,0.82,1.02,0.9,0.731,0.784,0.89,0.837,0.816,0.826,0.818
NCI-H838,0.736,0.809,0.725,0.55,0.43,0.604,0.671,0.575,0.504,0.396,0.958,1.23,0.981,0.753,0.638,0.534,0.695,0.501,0.421,0.329
NCI-H596,0.634,0.655,0.664,0.674,0.723,0.807,0.745,0.657,0.611,0.763,1.05,1.16,0.929,0.979,1.06,0.932,0.779,0.559,0.781,0.728
SK-LU-1,0.411,0.433,0.38,0.408,0.445,0.579,0.597,0.453,0.472,0.371,0.885,1.13,0.912,0.722,0.874,0.479,0.556,0.489,0.449,0.45
NCI-H650,0.372,0.376,0.389,0.367,0.358,0.492,0.464,0.396,0.393,0.441,0.977,0.971,0.813,0.703,0.992,1.02,1.01,0.994,1.02,0.88

Cell Line,relative viability ([1]; first compound 0.01 µM),relative viability ([1]; first compound 0.03162 µM),relative viability ([1]; first compound 0.1 µM),relative viability ([1]; first compound 0.3162 µM),relative viability ([1]; first compound 1 µM),relative viability ([2]; first compound 0.01 µM),relative viability ([2]; first compound 0.03162 µM),relative viability ([2]; first compound 0.1 µM),relative viability ([2]; first compound 0.3162 µM),relative viability ([2]; first compound 1 µM),relative viability ([3]; first compound 0.01 µM),relative viability ([3]; first compound 0.03162 µM),relative viability ([3]; first compound 0.1 µM),relative viability ([3]; first compound 0.3162 µM),relative viability ([3]; first compound 1 µM),relative viability ([4]; first compound 0.01 µM),relative viability ([4]; first compound 0.03162 µM),relative viability ([4]; first compound 0.1 µM),relative viability ([4]; first compound 0.3162 µM),relative viability ([4]; first compound 1 µM)
SK-MES-1,0.718,0.76,0.731,0.538,0.499,0.698,0.63,0.658,0.596,0.513,0.456,0.456,0.473,0.422,0.474,0.562,0.532,0.558,0.57,0.513
NCI-H1792,0.414,0.386,0.691,0.495,0.386,0.258,0.297,,0.281,0.489,0.93,0.937,0.905,0.827,0.835,0.407,0.632,0.433,0.594,0.42
NCI-H1355,0.7,0.784,0.713,0.691,0.669,0.45,0.442,0.449,0.406,0.432,1.03,1.04,0.985,0.919,0.873,0.361,0.41,0.439,0.384,0.357
SW 1573,0.491,0.682,0.443,0.517,0.398,0.383,0.405,0.381,0.412,0.314,1.18,1.09,1.21,1.27,1.08,0.568,0.567,0.531,0.636,0.449
NCI-H2347,0.598,0.546,0.525,0.515,0.443,0.37,0.38,0.6,0.407,0.221,1.04,1.01,0.88,0.863,0.833,0.276,0.268,0.27,0.277,0.255
LCLC-97TM1,0.45,0.414,0.401,0.291,0.261,0.345,0.437,0.425,0.397,0.401,,0.658,0.841,0.752,0.516,0.207,0.189,0.184,0.206,0.124
EMC-BAC-2,0.508,0.495,0.488,0.464,0.464,0.628,0.568,0.496,0.551,0.452,0.956,0.902,0.876,0.899,0.838,0.872,0.887,0.855,0.841,0.722
NCI-H1975,0.799,0.873,0.821,0.832,0.7,0.386,0.41,0.377,0.392,0.311,0.921,0.971,0.914,0.926,0.723,0.358,0.348,0.461,0.342,0.315
BEN,0.961,1.27,1.26,1.18,1.1,0.253,0.281,0.268,0.336,0.246,0.699,0.689,0.654,0.715,0.686,0.954,1.19,0.92,1.02,0.869
NCI-H23,0.337,0.345,0.389,0.319,0.306,0.856,0.835,0.864,0.787,0.734,1.26,1.25,1.11,1.21,0.987,0.392,0.319,0.388,0.466,0.404
NCI-H520,0.325,0.318,0.35,0.394,0.423,0.601,0.777,0.57,0.678,0.552,0.917,1.02,0.845,0.838,1.04,0.714,0.666,0.646,0.7,0.705
CAL-12T,0.766,0.697,0.619,0.775,0.636,0.628,0.523,0.536,0.512,0.444,0.65,0.663,0.43,0.591,0.627,0.363,0.304,0.32,0.358,0.357
EPLC-272H,0.699,0.544,0.821,0.871,0.506,0.307,0.309,0.339,0.327,0.345,0.921,0.914,0.884,0.965,1.09,0.288,0.294,0.247,0.319,0.277
NCI-H2405,0.879,0.922,0.78,0.702,0.641,0.402,0.376,0.385,0.248,0.392,1.16,1.08,0.995,1.02,0.91,0.633,0.676,0.596,0.596,0.584
HCC-15,0.778,0.799,0.713,0.661,0.619,0.492,0.501,0.463,0.384,0.405,0.876,0.905,0.72,0.775,0.723,0.344,0.378,0.35,0.35,0.336
PC-3 [JPC-3],1.13,,1.05,1.08,1.04,0.522,0.488,0.505,0.471,0.481,0.441,0.395,0.446,0.471,0.432,0.669,,0.712,0.696,0.554
